Test results as given in ChEMBL document CHEMBL5325413, “Optimization of BAX trigger site activator BTSA1 with improved antitumor potency and in vitro ADMET properties” (Eur J Med Chem, 2023).
Activity calls are given as the source filed them. No cut-off for these calls is given here.

Experiments:
A549 [1] = assay: Induction of apoptosis in human A549 cells assessed as dead cells at 10 uM incubated for 48 hrs by Annexin V-FITC/PI staining based flow cytometry analysis (reference value: 0.739%); format: functional
[2] = Metabolic stability in mouse liver microsomes assessed as parent compound remaining at 100 uM incubated for 60 mins in absence of NADPH by LC-MS/MS analysis
MV4-11 = assay: Antiproliferative activity against human MV4-11 cells expressing BAX assessed as cell growth inhibition incubated for 72 hrs by trypan blue cell counting analysis; format: functional
PC-3 = assay: Antiproliferative activity against human PC-3 cells assessed as cell growth inhibition incubated for 72 hrs by MTT assay; format: functional
[3] = Stability in rat plasma assessed as compound remaining measured immediately; format: ADME, cell-free; details: read-out: Stability
A549 [4] = assay: Induction of apoptosis in human A549 cells assessed as dead cells at 40 uM incubated for 48 hrs by Annexin V-FITC/PI staining based flow cytometry analysis (reference value: 0.535%); format: functional
[5] = Metabolic stability in mouse liver microsomes assessed as parent compound remaining at 100 uM incubated for 60 mins in presence of NADPH by LC-MS/MS analysis
[6] = Metabolic stability in human liver microsomes assessed as parent compound remaining at 100 uM incubated for 60 mins in presence of NADPH by LC-MS/MS analysis
A549 [7] = assay: Induction of apoptosis in human A549 cells assessed as dead cells at 20 uM incubated for 48 hrs by Annexin V-FITC/PI staining based flow cytometry analysis (reference value: 0.535%); format: functional
A549 [8] = assay: Induction of apoptosis in human A549 cells assessed as live cells at 10 uM incubated for 48 hrs by Annexin V-FITC/PI staining based flow cytometry analysis (reference value: 96.4%); format: functional
[9] = Stability in rat plasma assessed as compound remaining measured after 60 mins; format: ADME, cell-free; details: read-out: Stability
A549 [10] = assay: Antiproliferative activity against human A549 cells assessed as cell growth inhibition incubated for 72 hrs by MTT assay; format: functional
[11] = Metabolic stability in human liver microsomes assessed as parent compound remaining at 100 uM incubated for 60 mins in absence of NADPH by LC-MS/MS analysis
[12] = mouse, microsomes, 1 h, 100 µM
K562 = assay: Antiproliferative activity against human K562 cells expressing BAX assessed as cell growth inhibition incubated for 72 hrs by trypan blue cell counting analysis; format: functional
A549 [13] = assay: Inhibition of colony formation in human A549 cells at 20 uM incubated for 2 weeks by crystal violet staining based analysis; format: functional, cell-based
A549 [14] = assay: Induction of apoptosis in human A549 cells assessed as total apoptotic cells at 20 uM incubated for 48 hrs by Annexin V-FITC/PI staining based flow cytometry analysis (reference value: 4.26%); format: functional
A549 [15] = assay: Induction of cell cycle arrest in human A549 cells assessed as accumulation of cells at S phase at 10 uM incubated for 48 hrs by RNase/PI staining based flow cytometry analysis (reference value: 26.01%); format: functional
A549 [16] = assay: Antiproliferative activity against human A549 cells assessed as reduction in cell viability at 5 to 25 uM by MTT assay; format: functional, cell-based; details: dose 5-25 µM, time 24-72 hrs, TDE = time-dependent effect
A549 [17] = assay: Induction of apoptosis in human A549 cells assessed as live cells at 40 uM incubated for 48 hrs by Annexin V-FITC/PI staining based flow cytometry analysis (reference value: 95.9 %); format: functional
A549 [18] = assay: Induction of apoptosis in human A549 cells assessed as late apoptotic cells at 20 uM incubated for 48 hrs by Annexin V-FITC/PI staining based flow cytometry analysis (reference value: 2.52%); format: functional
A549 [19] = assay: Induction of apoptosis in human A549 cells assessed as formation of apoptotic bodies at 20 to 80 uM incubated for 48 hrs by Hoechst 33342 staining based fluorescence microscopic analysis; format: functional, cell-based; details: dose 20-80 µM
A549 [20] = assay: Induction of apoptosis in human A549 cells assessed as late apoptotic cells at 40 uM incubated for 48 hrs by Annexin V-FITC/PI staining based flow cytometry analysis (reference value: 2.52%); format: functional
A549 [21] = assay: Induction of apoptosis in human A549 cells assessed as live cells at 20 uM incubated for 48 hrs by Annexin V-FITC/PI staining based flow cytometry analysis (reference value: 95.9 %); format: functional
THP-1 = assay: Antiproliferative activity against human THP-1 cells expressing BAX assessed as cell growth inhibition incubated for 72 hrs by trypan blue cell counting analysis; format: functional
HCT-116 = assay: Antiproliferative activity against human HCT-116 cells assessed as cell growth inhibition incubated for 72 hrs by MTT assay; format: functional
A549 [22] = assay: Induction of apoptosis in human A549 cells assessed as late apoptotic cells at 10 uM incubated for 48 hrs by Annexin V-FITC/PI staining based flow cytometry analysis (reference value: 2.15%); format: functional
[23] = Stability in rat plasma assessed as compound remaining measured after 10 mins; format: ADME, cell-free; details: read-out: Stability
A549 [24] = assay: Induction of apoptosis in human A549 cells assessed as nuclear fragmentation at 20 to 80 uM incubated for 48 hrs by Hoechst 33342 staining based fluorescence microscopic analysis; format: functional, cell-based; details: dose 20-80 µM
A549 [25] = assay: Induction of apoptosis in human A549 cells assessed as cell rounding at 20 to 80 uM incubated for 48 hrs by Hoechst 33342 staining based fluorescence microscopic analysis; format: functional; details: dose 20-80 µM
A549 [26] = assay: Induction of apoptosis in human A549 cells assessed as early apoptotic cells at 10 uM incubated for 48 hrs by Annexin V-FITC/PI staining based flow cytometry analysis (reference value: 0.708%); format: functional
in vitro [27] = details: human, liver microsomes
[28] = human, microsomes, 1 h, 100 µM
[29] = Stability in rat plasma assessed as compound remaining measured after 30 mins; format: ADME, cell-free; details: read-out: Stability
[30] = Stability in rat plasma assessed as compound remaining measured after 120 mins; format: ADME, cell-free; details: read-out: Stability
A549 [31] = assay: Induction of cell cycle arrest in human A549 cells assessed as accumulation of cells at G0/G1 phase at 10 uM incubated for 48 hrs by RNase/PI staining based flow cytometry analysis (reference value: 54.82%); format: functional
A549 [32] = assay: Induction of apoptosis in human A549 cells assessed as early apoptotic cells at 20 uM incubated for 48 hrs by Annexin V-FITC/PI staining based flow cytometry analysis (reference value: 1.09 %); format: functional
in vitro [33] = details: mouse, liver microsomes
A549 [34] = assay: Induction of apoptosis in human A549 cells assessed as total apoptotic cells at 40 uM incubated for 48 hrs by Annexin V-FITC/PI staining based flow cytometry analysis (reference value: 4.26%); format: functional
NCI-H1581 = assay: Antiproliferative activity against human NCI-H1581 cells expressing BAX assessed as cell growth inhibition incubated for 72 hrs by MTT assay; format: functional
[35] = mouse, 1 h, 100 µM
MDA-MB-231 = assay: Antiproliferative activity against human MDA-MB-231 cells expressing BAX assessed as cell growth inhibition incubated for 72 hrs by MTT assay; format: functional
A549 [36] = assay: Induction of cell cycle arrest in human A549 cells assessed as accumulation of cells at G2/M phase at 10 uM incubated for 48 hrs by RNase/PI staining based flow cytometry analysis (reference value: 18.97%); format: functional
[37] = Stability in rat plasma assessed as half life; format: ADME, cell-free
A549 [38] = assay: Induction of apoptosis in human A549 cells assessed as total apoptotic cells at 10 uM incubated for 48 hrs by Annexin V-FITC/PI staining based flow cytometry analysis (reference value: 2.86%); format: functional

## O=C1/C(=N\Nc2nccs2)C(c2ccccc2)=NN1c1nc(-c2ccccc2)cs1
A549 [1]
  Activity: 0.651%
[2]
  remaining at 1 h, 100 µM: 84.8%
MV4-11
  GI50: 6.29 µM
PC-3
  GI50: 14.3 µM
[3]
  remaining at 0 min: 100%
A549 [4]
  Activity: 2.82%
[5]
  remaining at 1 h, 100 µM: 59.4%
[6]
  remaining at 1 h, 100 µM: 55.6%
A549 [7]
  Activity: 0.486%
A549 [8]
  Activity: 95.5%
[9]
  remaining at 1 h: 100%
A549 [10]
  GI50: 14.5 µM
[11]
  remaining at 1 h, 100 µM: 94.2%
[12]
  CLint: 15.8 µL/min/mg
K562
  GI50: > 4 µM
A549 [13]
  inhibition: Active
A549 [14]
  Activity: 5.91%
A549 [15]
  Activity: 24.77%
A549 [16]
  Activity: Tde
A549 [17]
  Activity: 82.2%
A549 [18]
  Activity: 2.7%
A549 [19]
  Activity: Active
A549 [20]
  Activity: 10.2%
A549 [21]
  Activity: 93.6%
THP-1
  GI50: > 10 µM
HCT-116
  GI50: 12.5 µM
A549 [22]
  Activity: 2.97%
[23]
  remaining at 10 min: 101%
A549 [24]
  Activity: Active
A549 [25]
  Activity: Active
A549 [26]
  Activity: 0.844%
In vitro [27]
  half-life at 1 h, 100 µM: 1.08 h
[28]
  CLint: 21.3 µL/min/mg
[29]
  remaining at 0.5 h: 98.2%
[30]
  remaining at 2 h: 98.6%
A549 [31]
  Activity: 57.42%
A549 [32]
  Activity: 3.21%
In vitro [33]
  half-life at 1 h, 100 µM: 1.46 h
A549 [34]
  Activity: 14.92%
NCI-H1581
  GI50: 6.22 µM
[35]
  CLH: 3.76 mL/h/kg
MDA-MB-231
  GI50: > 20 µM
A549 [36]
  Activity: 10.12%
[37]
  half-life: > 4.82 h
A549 [38]
  Activity: 3.81%
